Experimental data: patent US11559575B2, “Multi-epitopic peptide compounds and vaccines against leishmaniasis” (INSTITUT DE RECHERCHE POUR LE DEVELOPPEMENT, priority 2018, dated 2023)
“Also recorded” adds a separate entry of the source.

Tested on: HLA alleles of class II
Assay: Affinity of epitopes for HLA alleles of class II
Format: binding, human
Settings: for Affinity HLA alleles of class II: H2B-II core epitopes; for Affinity HLA alleles of class II / Concatenation affinity for the HLA alleles of class II: Table 1; for Concatenation affinity for the HLA alleles of class II: H2B-II peptides
Text: The multiepitopic peptide compounds (24 to 40-mer), having a high affinity with a maximized number of HLA molecules of class I and of class II, such as the affinities for the alleles HLA of class I and HLA of class II of the epitopes in the peptides of the sequences SEQ ID NO: 22, 23, 65, 66, 69, 73, 77, 96, 97, 137, 138, and 157, 185, have a high immunoprevalent potential corresponding to an optimal vaccine coverage, in particular for the populations concerned. The degree of coverage of the peptide compounds of the invention show a very high added value compared with the peptides of the prior art.

LKAINAQMS (Leishmania major) [SEQ ID NO: 45]
Affinity HLA alleles of class II: HLA-DRB1*04:05,; also recorded: HLA-DRB1*07:01,; also recorded: HLA-DRB1*08:02,; also recorded: HLA-DRB1*09:01,; also recorded: HLA-DRB1*11:01,; also recorded: HLA-DRB4*01:01,; also recorded: HLA-DRB5*01:01

LKAINAQMSMSHRTM (Leishmania major) [SEQ ID NO: 38]
Concatenation affinity for the HLA alleles of class II: HLA-DRB1*07:01, HLA-DRB1*04:01, HLA-DRB1*04:05,; also recorded: HLA-DRB1*09:01, HLA-DRB1*11:01, HLA-DRB1*15:01,; also recorded: HLA-DRB5*01:01, HLA-DRB1*01:01, HLA-DRB4*01:01,

MIRDLDFSN (listed as Leishmania infantum) [SEQ ID NO: 176]
Concatenation affinity for HLA alleles of class II (PSA KC-2.7 core, Table 3): HLA-DRB1*03:01,; also recorded: HLA-DRB1*04:01,; also recorded: HLA-DRB1*04:05,; also recorded: HLA-DRB1*08:02

MPSGSDYSHSMIRDL (listed as Leishmania infantum) [SEQ ID NO: 163]
Concatenation affinity for HLA alleles of class II (PSA KC-2.7 peptides, Table 3): HLA-DRB1*04:05, HLA-DRB1*07:01,; also recorded: HLA-DRB1*09:01, HLA-DRB5*01:01

NAIVTSRKV (Leishmania major) [SEQ ID NO: 125]
Concatenation affinity for HLA alleles of class II (LmlRAB-IIB core, Table 2): HLA-DRB1*07:01

NAIVTSRKVQEEVFD (Leishmania major) [SEQ ID NO: 109]
Concatenation affinity for HLA alleles of class II (LmlRAB-IIB peptides, Table 2): HLA-DRB1*03:01, HLA-DRB1*07:01,; also recorded: HLA-DRB1*08:02, HLA-DRB1*11:01,; also recorded: HLA-DRB1*12:01

NAQMSMSHR (Leishmania major) [SEQ ID NO: 46]
Affinity HLA alleles of class II: HLA-DRB1*01:01

NVYVGRSLKAINAQM (Leishmania major) [SEQ ID NO: 31]
Concatenation affinity for the HLA alleles of class II: HLA-DRB1*04:01, HLA-DRB4*01:01, HLA-DRB1*03:01,; also recorded: HLA-DRB1*04:05, HLA-DRB1*11:01, HLA-DRB1*01:01,; also recorded: HLA-DRB1*09:01, HLA-DRB1*15:01, HLA-DRB1*08:02

PKRSWNVYV (Leishmania major) [SEQ ID NO: 48]
Affinity HLA alleles of class II: HLA-DRB1*13:02,; also recorded: HLA-DRB1*15:01

PKRSWNVYVGRSLKA (Leishmania major) [SEQ ID NO: 26]
Concatenation affinity for the HLA alleles of class II: HLA-DRB5*01:01, HLA-DRB1*01:01, HLA-DRB1*11:01,; also recorded: HLA-DRB5*13:02, HLA-DRB5*07:01, HLA-DRB5*09:01,; also recorded: HLA-DRB5*15:01

PSGSDYSHSMIRDLD (listed as Leishmania infantum) [SEQ ID NO: 164]
Concatenation affinity for HLA alleles of class II (PSA KC-2.7 peptides, Table 3): HLA-DRB1*04:05, HLA-DRB1*07:01,; also recorded: HLA-DRB1*09:01, HLA-DRB5*01:01,; also recorded: LA-DPA1*02:01/DPB1*01:01

RHLSIVADHMPLHDQ (RHLSIVADHMPHLDQ; Leishmania major) [SEQ ID NO: 87]
Concatenation affinity for HLA alleles of class II (LmLRAB-IIA peptides, Table 2): HLA-DRB3*01:01,; also recorded: HLA-DRB1*03:01,; also recorded: HLA-DRB1*13:02

RKPKRSWNVYVGRSL (Leishmania major) [SEQ ID NO: 24]
Concatenation affinity for the HLA alleles of class II: HLA-DRB1*13:02, HLA-DRB1*01:01, HLA-DRB1*07:01,; also recorded: HLA-DRB1*09:01, HLA-DRB1*15:01

RKVQEEVFDLFTDVH (Leishmania major) [SEQ ID NO: 111]
Concatenation affinity for HLA alleles of class II (LmlRAB-IIB peptides, Table 2): HLA-DRB1*03:01, HLA-DRB1*04:01,; also recorded: HLA-DPA1*02:01/DPB1*05:01,; also recorded: HLA-DPA1*03:01/DPB1*04:02

RLHSVVGRHLSIVAD (Leishmania major) [SEQ ID NO: 80]
Concatenation affinity for HLA alleles of class II (LmLRAB-IIA peptides, Table 2): HLA-DRB1*07:01,; also recorded: HLA-DRB1*15:01,; also recorded: HLA-DRB5*01:01,; also recorded: HLA-DRB1*11:01,; also recorded: HLA-DRB1*09:01,

RSENAIVTSRKVQEE (Leishmania major) [SEQ ID NO: 112]
Concatenation affinity for HLA alleles of class II (LmlRAB-IIB peptides, Table 2): HLA-DRB1*01:01, HLA-DRB1*03:01,; also recorded: HLA-DRB1*07:01, HLA-DRB1*11:01,; also recorded: HLA-DRB5*01:01

RSGEGYFLT (listed as Leishmania infantum) [SEQ ID NO: 149]
Concatenation affinity for HLA alleles of class II (PSA KC-2.6 core, Table 3): HLA-DRB1*03:01,; also recorded: HLA-DRB3*01:01

RSGEGYFLTDEKTSL (listed as Leishmania infantum) [SEQ ID NO: 143]
Concatenation affinity for HLA alleles of class II (PSA KC-2.6 peptides, Table 3): HLA-DRB1*01:01, HLA-DRB1*03:01,; also recorded: HLA-DRB1*04:01, HLA-DRB3*01:01,; also recorded: HLA-DPA1*03:01/DPB1*14:01

RSLKAINAWMSMSHR (RSLKAINAQMSMSHR; Leishmania major) [SEQ ID NO: 36]
Concatenation affinity for the HLA alleles of class II: HLA-DRB1*04:01, HLA-DRB1*15:01, HLA-DRB1*05:01,; also recorded: HLA-DRB1*01:01, HLA-DRB1*04:05, HLA-DRB1*07:01,; also recorded: HLA-DRB1*08:02, HLA-DRB1*09:01, HLA-DRB1*11:01,; also recorded: HLA-DRB4*01:01,
